PMC5845004, “Novel (p)ppGpp Binding and Metabolizing Proteins of Escherichia coli” (mBio, 2018)
Entries after “also recorded” stand apart in the source; their conditions may differ. Like-named read-outs stand apart in the source and are kept apart here.

Key:
NadR = NadR (Escherichia coli, UniProt P27278); test: In vitro cleavage assay (TLC), NadR; format: biochemical, E. coli; settings: 10-20 µM NadR, buffer B with 100 mM NaCl, 10 min
Experimental: The purified His6-MutT and His6-NudG proteins were tested for their relative levels of cleavage of ppGpp compared to those seen with their native substrates. For this, a 1 μM concentration of each protein and a 10 nM concentration of [α-^32P]ppGpp were used together with 100 μM concentrations of cold competitors [ppGpp, GTP, ATP, 8-oxo-(d)GTP, 2-hydroxyl-(d)ATP] or 50 mM EDTA in buffer B. The samples were incubated at 30°C for 10 min and for 1 h before the reactions were stopped by adding 50 mM EDTA. The cleavage products were resolved by TLC as described above. The purified His6-NadR and His6-TrmE proteins were tested for their cleavage of both GTP and ppGpp. […]
(§1) A 20 μM concentration of each of purified proteins MutT, NudG, NadR, TrmE, and MBP (as a negative control) was incubated with 100 μM ppGpp in buffer B (containing 40 mM Tris [pH 7.5], 100 mM NaCl, and 10 mM MgCl2) for 20 min at room temperature. Samples were snap-frozen on dry ice and analyzed with UPLC-MS afterward. […] The detection conditions were as follows: photodiode array detector (PDA), […] (evaluated at 260 nm); MS, ionization; electrospray ionization (ESI+), scan, 200 to 800 m/z with lock mass correction. […]

Hpt = Hpt (Escherichia coli, UniProt P0A9M2); test: DRaCALA competition assay, Hpt; format: binding, E. coli; settings: 20 µM Hpt, 2 nM hot ppGpp, 100 µM cold competitor
Experimental: (§5) For Kd measurements by DRaCALA, 2-fold serial dilutions from the highest possible concentrations of each purified protein were prepared in binding buffer B, and approximately 2 nM concentrations of α-^32P-labeled ppGpp, pppGpp, GTP, and GDP were added. The mixtures were incubated for 5 min at RT before spotting of 2 µl of the reaction mixtures onto nitrocellulose membranes. The fractions of bound ligand and the apparent Kd values were calculated as previously described ([37]). For competition assays, purified proteins at the specified concentrations were incubated with 2 nM [α-^32P]ppGpp or [α-^32P]pppGpp in the presence of 100 μM competitor nucleotides in binding buffer B. The reaction mixtures were incubated for 5 min at RT, 2 µl was spotted onto nitrocellulose membranes, and the values corresponding to the bound fractions were determined. EDTA was added at excess concentrations as specified for each case.

Apt [1] = target: T1, Apt (Escherichia coli, UniProt P69503); test: DRaCALA binding, purified Apt; set-up: species or system E. coli; settings: up to 150 µM Apt
PurA [2] = target: T2, PurA (Escherichia coli, UniProt P0A7D4); settings: cited from earlier work
DnaG [3] = test system: DnaG; set-up: method as in Table S1 (13); settings: ref Table S1 (13); read-out: IC50, B. subtilis DnaG; cited from earlier work
Gpt = Gpt (Escherichia coli, UniProt P0A9M5); test: DRaCALA competition assay, Gpt; format: binding, E. coli; settings: 20 µM Gpt, 2 nM hot ppGpp, 100 µM cold competitor
Experimental: The mixtures were incubated for 5 min at RT before spotting of 2 µl of the reaction mixtures onto nitrocellulose membranes. […] For competition assays, purified proteins at the specified concentrations were incubated with 2 nM [α-^32P]ppGpp or [α-^32P]pppGpp in the presence of 100 μM competitor nucleotides in binding buffer B. The reaction mixtures were incubated for 5 min at RT, 2 µl was spotted onto nitrocellulose membranes, and the values corresponding to the bound fractions were determined.

UshA = target: T3, UshA (Escherichia coli, UniProt P07024); test: Cleavage of (p)ppGpp by UshA; format: biochemical, E. coli
T3 sequence (P07024 26-550): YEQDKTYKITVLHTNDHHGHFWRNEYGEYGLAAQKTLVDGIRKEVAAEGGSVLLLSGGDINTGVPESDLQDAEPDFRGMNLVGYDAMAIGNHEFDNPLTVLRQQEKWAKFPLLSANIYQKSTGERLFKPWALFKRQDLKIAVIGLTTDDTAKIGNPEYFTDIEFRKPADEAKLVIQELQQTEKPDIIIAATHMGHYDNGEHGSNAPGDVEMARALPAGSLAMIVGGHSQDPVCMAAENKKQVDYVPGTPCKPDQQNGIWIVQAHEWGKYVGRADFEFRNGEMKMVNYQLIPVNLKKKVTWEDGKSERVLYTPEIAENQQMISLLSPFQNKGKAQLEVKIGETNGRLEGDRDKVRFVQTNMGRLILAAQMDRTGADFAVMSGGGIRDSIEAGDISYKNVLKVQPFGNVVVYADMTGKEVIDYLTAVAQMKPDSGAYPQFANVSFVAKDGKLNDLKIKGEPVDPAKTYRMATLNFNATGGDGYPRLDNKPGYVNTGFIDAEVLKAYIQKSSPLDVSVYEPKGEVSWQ
Description: (§2) Supplement mbo001183765st1.docx, table 1: Table S1. List of proteins that bind or cleave (p)ppGpp. | column: Binding (Kd or otherwise stated in µM) or cleavage of (p)ppGpp in E. coli

YgdH [4] = target: T4, YgdH (Escherichia coli, UniProt P0ADR8); test: TLC of YgdH binding reactions (degradation test); format: biochemical, E. coli; settings: binding reactions analyzed by TLC
PhoA = PhoA (Escherichia coli, UniProt P00634); test: Cleavage of (p)ppGpp by PhoA; format: biochemical, E. coli
Description: as §2

YgdH [5] = target: T4, YgdH; test: DRaCALA competition assay, YgdH; format: binding, E. coli; settings: 100 µM cold competitor; data not shown
YybT /GdpP = settings: other bacteria, cited from earlier work
TrmE = TrmE (Escherichia coli, UniProt P25522); test: In vitro cleavage assay (TLC), TrmE; format: biochemical, E. coli; settings: 10 µM TrmE, buffer B, with 100 mM potassium where stated, 10 min
Experimental: (§3) The purified His6-MutT and His6-NudG proteins were tested for their relative levels of cleavage of ppGpp compared to those seen with their native substrates. For this, a 1 μM concentration of each protein and a 10 nM concentration of [α-^32P]ppGpp were used together with 100 μM concentrations of cold competitors [ppGpp, GTP, ATP, 8-oxo-(d)GTP, 2-hydroxyl-(d)ATP] or 50 mM EDTA in buffer B. The samples were incubated at 30°C for 10 min and for 1 h before the reactions were stopped by adding 50 mM EDTA. The cleavage products were resolved by TLC as described above. The purified His6-NadR and His6-TrmE proteins were tested for their cleavage of both GTP and ppGpp. For cleavage of GTP, 10 μM concentrations of His6-MBP, His6-TrmE, and 20 μM His6-NadR proteins were used with 2 nM [α-^32P]GTP and 100 μM cold GTP in buffer B. For cleavage of ppGpp, 10 μM concentrations of His6-TrmE, His6-MBP, and His6-NadR proteins were used with 10 nM [α-^32P]ppGpp in buffer B. Of note, for His6-TrmE, another reaction was also performed in buffer B supplemented with 100 mM KCl. The reactions were performed at RT for 10 min and were stopped by adding 17% formic acid. The cleavage products were resolved by TLC as described above.
as §1, with “afterward. All samples and buffers were stored at −80°C, thawed on ice, and kept at 4°C during analysis. For the analysis, a UPLC-quadrupole time of flight (UPLC-qTOF) method (Waters) was used.” for “afterward.”

MutT = MutT (Escherichia coli, UniProt P08337); test: In vitro cleavage assay (TLC), MutT; format: biochemical, E. coli; settings: purified MutT, buffer B with 10 mM MgCl2, TLC
Experimental: as §3
(§4) A 20 μM concentration of each of purified proteins MutT, NudG, NadR, TrmE, and MBP (as a negative control) was incubated with 100 μM ppGpp in buffer B (containing 40 mM Tris [pH 7.5], 100 mM NaCl, and 10 mM MgCl2) for 20 min at room temperature. Samples were snap-frozen on dry ice and analyzed with UPLC-MS afterward. All samples and buffers were stored at −80°C, thawed on ice, and kept at 4°C during analysis. For the analysis, a UPLC-quadrupole time of flight (UPLC-qTOF) method (Waters) was used. Analysis conditions were as follows: column, zic-HILIC (Merck Millipore) (150 by 2.1 mm, […], gradient elution, flow rate set to 0.3 ml/min); mobile phase A, 10 mM ammonium acetate (pH 5); mobile phase B, 90% acetonitrile with 10 mM ammonium acetate (pH 5). The gradient was set up as follows: min 0 to 2, 80% B; min 2 to 16, 80% B to 50% B; hold until min 20; injection volume, 4 µl. The detection conditions were as follows: photodiode array detector (PDA), […] (evaluated at 260 nm); MS, ionization; electrospray ionization (ESI+), scan, 200 to 800 m/z with lock mass correction. Analytes were identified by their accurate mass and retention time data for a known standard dissolved in used buffer (for the chemicals of the same nominal masses). These standards were either synthesized and their structures confirmed by nuclear magnetic resonance (NMR) (for ppGp, pGpp, and pGp) or purchased (ppGpp was purchased from Jena Biocsience and GTP from Sigma-Aldrich).

DnaG [6] = settings: ref Table S1 (12); cited from earlier work
RelA = test system: RelA; set-up: method as in ref 36 (Table S1 ref 16); settings: ref 36 (Table S1 ref 16); cited from earlier work
RNAP /DksA = test system: RNAP /DksA; set-up: method as in Table S1 (14); settings: ref Table S1 (14); cited from earlier work
YgdH [7] = target: T4, YgdH; test: DRaCALA binding and Kd determination, purified YgdH; set-up: species or system E. coli; settings: 20 µM YgdH, binding buffer with 10 mM MgCl2, no EDTA
Experimental: For Kd measurements by DRaCALA, 2-fold serial dilutions from the highest possible concentrations of each purified protein were prepared in binding buffer B, and approximately 2 nM concentrations of α-^32P-labeled ppGpp, pppGpp, GTP, and GDP were added. The mixtures were incubated for 5 min at RT before spotting of 2 µl of the reaction mixtures onto nitrocellulose membranes. […] For competition assays, purified proteins at the specified concentrations were incubated with 2 nM [α-^32P]ppGpp or [α-^32P]pppGpp in the presence of 100 μM competitor nucleotides in binding buffer B. The reaction mixtures were incubated for 5 min at RT, 2 µl was spotted onto nitrocellulose membranes, and the values corresponding to the bound fractions were determined. EDTA was added at excess concentrations as specified for each case.

GuaB = target: GuaB; set-up: method as in ref 29, 31, 47 (Table S1 ref 5); settings: 47 (Table S1 ref 5); cited from earlier work
PurA [8] = target: T2, PurA; test: DRaCALA binding, purified PurA; set-up: species or system E. coli; settings: PurA up to 150 µM
Experimental: as §5

Apt [9] = target: T1, Apt; settings: ref Table S1 (2); cited from earlier work
NudG = target: T5, NudG (Escherichia coli, UniProt P77788); test: In vitro cleavage assay (TLC), NudG; format: biochemical, E. coli; settings: purified NudG, buffer B with 10 mM MgCl2, TLC
T5 construct: expressed in transfected cells; host or cells: E. coli ASKA collection strain, IPTG-induced, whole-cell lysate
Experimental: as §3, §4

T4 sequence (P0ADR8 whole entry): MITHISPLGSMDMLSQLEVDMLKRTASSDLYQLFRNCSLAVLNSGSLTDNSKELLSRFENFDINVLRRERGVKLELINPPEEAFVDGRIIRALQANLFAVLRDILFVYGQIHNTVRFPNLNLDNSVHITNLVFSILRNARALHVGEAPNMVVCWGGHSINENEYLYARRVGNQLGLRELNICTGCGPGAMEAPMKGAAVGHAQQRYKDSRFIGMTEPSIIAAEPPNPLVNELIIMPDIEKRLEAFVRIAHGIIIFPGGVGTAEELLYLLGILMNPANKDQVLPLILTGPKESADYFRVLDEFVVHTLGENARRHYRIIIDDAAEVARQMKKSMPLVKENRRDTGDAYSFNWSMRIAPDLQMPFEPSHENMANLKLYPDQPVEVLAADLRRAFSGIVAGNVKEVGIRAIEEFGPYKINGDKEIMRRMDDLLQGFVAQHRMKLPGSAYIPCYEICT
T2 sequence (P0A7D4 whole entry): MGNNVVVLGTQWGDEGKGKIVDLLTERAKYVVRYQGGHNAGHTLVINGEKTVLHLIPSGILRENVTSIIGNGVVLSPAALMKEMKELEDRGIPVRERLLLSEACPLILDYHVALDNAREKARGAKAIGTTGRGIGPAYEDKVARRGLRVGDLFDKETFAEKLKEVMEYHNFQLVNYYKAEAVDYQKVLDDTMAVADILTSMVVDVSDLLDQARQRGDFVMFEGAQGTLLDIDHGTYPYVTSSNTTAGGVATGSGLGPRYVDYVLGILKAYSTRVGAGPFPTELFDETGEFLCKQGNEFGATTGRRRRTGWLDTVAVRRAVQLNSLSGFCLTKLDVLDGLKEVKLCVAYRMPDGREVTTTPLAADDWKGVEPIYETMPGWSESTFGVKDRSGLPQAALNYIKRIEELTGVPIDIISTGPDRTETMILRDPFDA
T1 sequence (P69503 whole entry): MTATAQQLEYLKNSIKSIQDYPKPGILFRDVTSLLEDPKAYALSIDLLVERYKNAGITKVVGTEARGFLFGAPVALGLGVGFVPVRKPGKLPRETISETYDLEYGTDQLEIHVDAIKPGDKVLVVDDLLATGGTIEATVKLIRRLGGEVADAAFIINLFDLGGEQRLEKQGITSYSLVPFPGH
NadR, sequence (P27278 whole entry): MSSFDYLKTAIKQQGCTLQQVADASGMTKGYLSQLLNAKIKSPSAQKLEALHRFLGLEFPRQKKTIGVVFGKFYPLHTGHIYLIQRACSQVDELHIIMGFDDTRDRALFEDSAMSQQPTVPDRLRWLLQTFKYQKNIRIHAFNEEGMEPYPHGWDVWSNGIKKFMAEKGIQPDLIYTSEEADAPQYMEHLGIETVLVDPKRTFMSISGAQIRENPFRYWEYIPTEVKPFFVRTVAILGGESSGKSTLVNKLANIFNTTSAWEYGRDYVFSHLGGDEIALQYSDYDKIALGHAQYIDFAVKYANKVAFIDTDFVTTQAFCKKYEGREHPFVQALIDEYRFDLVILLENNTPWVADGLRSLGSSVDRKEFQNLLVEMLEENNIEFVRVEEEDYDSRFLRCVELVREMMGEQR
TrmE, sequence (P25522 whole entry): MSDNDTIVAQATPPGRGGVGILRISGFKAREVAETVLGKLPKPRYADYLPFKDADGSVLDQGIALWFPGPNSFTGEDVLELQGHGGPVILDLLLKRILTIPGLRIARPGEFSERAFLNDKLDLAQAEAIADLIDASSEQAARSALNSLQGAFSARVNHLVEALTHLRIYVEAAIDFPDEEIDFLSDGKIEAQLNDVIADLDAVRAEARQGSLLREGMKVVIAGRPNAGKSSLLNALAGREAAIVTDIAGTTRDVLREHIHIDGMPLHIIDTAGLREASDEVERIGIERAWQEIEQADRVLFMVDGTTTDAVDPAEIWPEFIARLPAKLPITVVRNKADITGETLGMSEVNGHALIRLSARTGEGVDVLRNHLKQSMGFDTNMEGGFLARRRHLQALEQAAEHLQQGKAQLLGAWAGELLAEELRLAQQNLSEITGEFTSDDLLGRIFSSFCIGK
PhoA, sequence (P00634 22-471): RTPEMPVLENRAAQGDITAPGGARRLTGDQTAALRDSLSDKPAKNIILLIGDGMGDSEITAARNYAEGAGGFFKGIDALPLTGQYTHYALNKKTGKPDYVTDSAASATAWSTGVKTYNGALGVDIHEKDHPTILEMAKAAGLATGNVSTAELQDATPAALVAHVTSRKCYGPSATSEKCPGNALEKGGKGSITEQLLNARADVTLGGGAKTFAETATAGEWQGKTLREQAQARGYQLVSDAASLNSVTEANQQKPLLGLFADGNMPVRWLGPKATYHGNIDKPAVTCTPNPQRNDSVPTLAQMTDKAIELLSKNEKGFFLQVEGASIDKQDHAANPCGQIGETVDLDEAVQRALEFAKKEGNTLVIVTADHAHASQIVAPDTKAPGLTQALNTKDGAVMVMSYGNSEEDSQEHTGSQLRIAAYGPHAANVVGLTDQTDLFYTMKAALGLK
MutT, sequence (P08337 whole entry): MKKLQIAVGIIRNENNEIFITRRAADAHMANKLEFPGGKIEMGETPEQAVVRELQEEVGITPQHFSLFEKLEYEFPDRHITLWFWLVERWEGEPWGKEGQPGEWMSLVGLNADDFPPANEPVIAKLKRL
Gpt, sequence (P0A9M5 whole entry): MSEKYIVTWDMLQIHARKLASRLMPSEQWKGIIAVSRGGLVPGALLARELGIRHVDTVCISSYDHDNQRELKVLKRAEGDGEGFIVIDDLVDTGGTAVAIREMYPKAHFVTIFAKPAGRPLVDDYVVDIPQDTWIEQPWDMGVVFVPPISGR
Hpt, sequence (P0A9M2 whole entry): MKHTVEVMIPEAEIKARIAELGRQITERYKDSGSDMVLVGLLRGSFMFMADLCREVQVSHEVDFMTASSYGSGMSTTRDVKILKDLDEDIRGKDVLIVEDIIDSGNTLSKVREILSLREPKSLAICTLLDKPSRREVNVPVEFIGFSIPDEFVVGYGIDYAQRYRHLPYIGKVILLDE
T5 sequence (P77788 whole entry): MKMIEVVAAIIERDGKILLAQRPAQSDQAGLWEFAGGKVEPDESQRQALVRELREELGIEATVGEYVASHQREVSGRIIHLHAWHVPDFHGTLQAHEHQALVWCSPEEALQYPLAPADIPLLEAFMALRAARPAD

**Q.** For (p)ppGpp, which “cleavage by NadR” value (NadR) is on record?
**A.** some degradation; also recorded: Cleavage of (p)ppGpp into ppGp/pGpp

**Q.** And the “competition for bound [α-32P]ppGpp on Hpt” value (Hpt)?
**A.** partially outcompete

**Q.** And the “binding to Apt” value (Apt [1])?
**A.** no significant binding

**Q.** And the Ki (PurA [2]; ref Table S1 (5))?
**A.** 140 µM

**Q.** What about the Ki (PurA [2]; ref Table S1 (6)) of the same substance?
**A.** 50 µM

**Q.** And the IC50 (DnaG [3])?
**A.** 500 µM

**Q.** What about the “competition for bound [α-32P]ppGpp on Gpt” value (Gpt) of the same substance?
**A.** partially outcompete

**Q.** What about the “cleavage by UshA” value (UshA) of the same substance?
**A.** Non-specific cleavage of (p)ppGpp into (p)pi

**Q.** And the “degradation by YgdH” value (YgdH [4])?
**A.** not degraded

**Q.** What about the “cleavage by PhoA” value (PhoA) of the same substance?
**A.** Non-specific cleavage of (p)ppGpp into (p)pi

**Q.** What about the “competition for (p)ppGpp binding to YgdH” value (YgdH [5]) of the same substance?
**A.** could outcompete

**Q.** And the Ki (YybT /GdpP; ref Table S1 (21))?
**A.** 36 µM

**Q.** And the Ki (YybT /GdpP; ref Table S1 (22))?
**A.** 130 µM

**Q.** And the “cleavage by TrmE” value (TrmE)?
**A.** some degradation; also recorded: Cleavage of (p)ppGpp into ppGp/pGpp

**Q.** What about the “cleavage by MutT” value (MutT) of the same substance?
**A.** Cleavage of (p)ppGpp into pGp

**Q.** And the IC50 (DnaG [6])?
**A.** 200 µM

**Q.** And the “effect on RelA activity” value (RelA)?
**A.** Synthesis of and stimulated by (p)ppGpp; (16)

**Q.** What about the IC50 (RNAP /DksA) of the same substance?
**A.** 15 µM

**Q.** And the “binding to purified YgdH” value (YgdH [7])?
**A.** not able to significantly bind

**Q.** What about the Ki (GuaB) of the same substance?
**A.** 30 to 50 µM

**Q.** What about the “binding to PurA” value (PurA [8]) of the same substance?
**A.** no specific binding; also recorded: does not significantly bind

**Q.** And the IC50 (Apt [9])?
**A.** 1500 µM

**Q.** And the “cleavage by NudG” value (NudG)?
**A.** Cleavage of (p)ppGpp into pGp
